From PubChem BioAssay (NCI)
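Compound exposure: 48 hours, 5 concentrations, 96-well plates. TGI is the concentration that stops growth completely.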

Key:
Test in all cases: NCI-60 cell line screen, 48 h
[1] = system: MALME-3M melanoma
[2] = system: SK-OV-3 ovarian
[3] = system: UACC-257 melanoma
[4] = system: ACHN renal
[5] = system: SK-MEL-2 melanoma
[6] = system: MCF7 breast
[7] = system: T-47D breast
[8] = system: BT-549 breast
[9] = system: SF-295 CNS
[10] = system: SW-620 colon

Which TGI [1] does the source give for `Nc1nc(Cl)cc(NC23CC4CC(CC(C4)C2)C3)n1` here?
The TGI was over 100 µM.

What about the TGI [2] of the same compound?
The TGI was over 100 µM.

And the TGI [3]?
The TGI was over 100 µM.

And the TGI [4]?
Its TGI is over 100 µM.

And the TGI [5]?
Its TGI is 71.4 µM.

And the TGI [6]?
Its TGI is over 100 µM.

What about the TGI [7] of the same compound?
Its TGI is over 100 µM.

What about the TGI [8] of the same compound?
The TGI was over 100 µM.

What about the TGI [9] of the same compound?
Its TGI is over 100 µM.

And the TGI [10]?
Its TGI is over 100 µM.

For `CCOC(=O)c1cc2c([N+](=O)[O-])c(N)ccc2s1`, which TGI [1] is on record?
Its TGI is over 100 µM.

And the TGI [2]?
Its TGI is over 100 µM.

What about the TGI [3] of the same compound?
The TGI was over 100 µM.

What about the TGI [4] of the same compound?
The TGI was over 100 µM.

What about the TGI [5] of the same compound?
The TGI was over 100 µM.

And the TGI [6]?
Its TGI is over 100 µM.

What about the TGI [7] of the same compound?
The TGI was over 100 µM.

What about the TGI [8] of the same compound?
Its TGI is over 100 µM.

What about the TGI [9] of the same compound?
The TGI was over 100 µM.

And the TGI [10]?
Its TGI is over 100 µM.

With `C=CCOn1c(C=C)nc2ccc(C)cc21` as the compound, how does the TGI [1] read?
Its TGI is 38.9 µM.

What about the TGI [2] of the same compound?
Its TGI is over 100 µM.

What about the TGI [3] of the same compound?
The TGI was 32.3 µM.

What about the TGI [4] of the same compound?
Its TGI is 59.6 µM.

And the TGI [5]?
The TGI was 30.6 µM.

What about the TGI [6] of the same compound?
Its TGI is 24.9 µM.

What about the TGI [7] of the same compound?
The TGI was 43.5 µM.

And the TGI [8]?
Its TGI is 41.2 µM.

And the TGI [9]?
The TGI was 82.6 µM.

And the TGI [10]?
The TGI was 40.8 µM.
